Laboratory results: patent US20260022142A1, “MACROCYCLIC IMMUNOMODULATORS” (Bristol-Myers Squibb Company, priority 2022, published 2026)
pIC50: −log10 of the molar value. Bridge positions count the residues as written; N and C are the ends. Square brackets hold non-standard residues; d marks the D form. Peptide text beside a SMILES is read from it. * marks the point of attachment. ξ: configuration not given here. Bip = N[C@@H](Cc1ccc(-c2ccccc2)cc1)C(=O)O; Phe(3-Me) = Cc1cccc(C[C@H](N)C(=O)O)c1; Val(3-OH) = CC(C)(O)[C@H](N)C(=O)O; Cha = N[C@@H](CC1CCCCC1)C(=O)O; Thr(3ξ) = CC(O)[C@H](N)C(=O)O; 12Ado = NCCCCCCCCCCCC(=O)O; Carboxymethyl = O=C(O)C*; Orn = NCCC[C@H](N)C(=O)O; Aun = NCCCCCCCCCCC(=O)O; Dab = NCC[C@H](N)C(=O)O

These compounds were tested against T1, PD-1/PD-L1 interaction (PE-labeled human PD-L1-Ig binding to Jurkat cell line over-expressing human PD-1) (Homo sapiens, UniProt Q15116) (assay: Jurkat-PD-1 Cell Binding High-Content Screening Assay (CBA)). Conditions: Jurkat cell line over-expressing human PD-1; PE-labeled PD-L1-Ig 20 nM final; read-out: Jurkat hPD1-PDL1 IC50.
T1 construct: expressed in transfected cells; host or cells: Jurkat
T1 sequence (Q15116 25-288): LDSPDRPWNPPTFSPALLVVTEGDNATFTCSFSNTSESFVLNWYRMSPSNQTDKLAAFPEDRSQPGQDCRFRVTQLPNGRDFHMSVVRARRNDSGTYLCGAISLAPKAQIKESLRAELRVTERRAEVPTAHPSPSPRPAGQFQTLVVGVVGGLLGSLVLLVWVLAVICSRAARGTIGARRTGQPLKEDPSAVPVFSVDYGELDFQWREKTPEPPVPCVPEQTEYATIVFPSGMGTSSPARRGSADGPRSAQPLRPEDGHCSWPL
Assay type: cell-based
Summary of the method: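 Jurkat cells stably over-expressing human PD-1 were seeded in DMEM with 10% fetal calf serum and pre-incubated with compound for 2 h at 37° C. PE-labeled human PD-L1-Ig was then added at 20 nM final for 1 hour, after which cells were fixed with paraformaldehyde, Hoechst-stained and imaged by high-content microscopy.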

SMILES	pIC50
CC(=O)NCCCC[C@@H]1NC(=O)[C@H](Cc2ccc(-c3ccccc3)cc2)NC(=O)[C@H](Cc2ccc(O)cc2)NC(=O)[C@H](Cc2cccc(C)c2)NC(=O)[C@H](CC(=O)O)NC(=O)[C@H](Cc2ccc(OCC(=O)O)cc2)NC(=O)[C@H](CCN)NC(=O)CSC[C@@H](C(=O)N[C@@H](CCN)C(=O)N[C@@H](CO)C(=O)NCCCCCCCCCCCC(=O)O)NC(=O)[C@H](CCCN)NC(=O)[C@H](C(C)(C)O)NC(=O)[C@H](CC2CCCCC2)NC(=O)[C@H](CCN)NC(=O)[C@@H](CC(C)C)NC(=O)[C@H](CCCN)NC1=O [Compound 3620] ({CH2CO}-[Dab]Y(Carboxymethyl)D[Phe(3-Me)]Y[Bip]K(Ac)[Orn][dL][Dab][Cha][Val(3-OH)][Orn]C[Dab]S[12Ado]-OH; thioether N-14)	7.43
CC(=O)NCCCC[C@@H]1NC(=O)[C@H](Cc2ccc(-c3ccccc3)cc2)NC(=O)[C@H](Cc2ccc(O)cc2)NC(=O)[C@H](Cc2cccc(C)c2)NC(=O)[C@H](CC(=O)O)NC(=O)[C@H](Cc2ccc(OCC(=O)O)cc2)NC(=O)[C@H](CCN)NC(=O)CSC[C@@H](C(=O)N[C@@H](CCN)C(=O)N[C@@H](CO)C(=O)NCCCCCCCCCCCC(=O)O)NC(=O)[C@H](CCC(=O)O)NC(=O)[C@H](C(C)(C)O)NC(=O)[C@H](CC2CCCCC2)NC(=O)[C@H](CCN)NC(=O)[C@@H](CC(C)C)NC(=O)[C@H](CCCN)NC1=O [Compound 3621] ({CH2CO}-[Dab]Y(Carboxymethyl)D[Phe(3-Me)]Y[Bip]K(Ac)[Orn][dL][Dab][Cha][Val(3-OH)]EC[Dab]S[12Ado]-OH; thioether N-14)	7.61
CC(=O)NCCCC[C@@H]1NC(=O)[C@H](Cc2ccc(-c3ccccc3)cc2)NC(=O)[C@H](Cc2ccc(O)cc2)NC(=O)[C@H](Cc2cccc(C)c2)NC(=O)[C@H](CC(=O)O)NC(=O)[C@H](Cc2ccc(OCC(=O)O)cc2)NC(=O)[C@H](C(C)O)NC(=O)CSC[C@@H](C(=O)N[C@@H](CCN)C(=O)N[C@@H](CO)C(=O)NCCCCCCCCCCCC(=O)O)NC(=O)[C@H](CCCN)NC(=O)[C@H](C(C)(C)O)NC(=O)[C@H](CC2CCCCC2)NC(=O)[C@H](CCN)NC(=O)[C@@H](CC(C)C)NC(=O)[C@H](CCCN)NC1=O (stereo partly drawn) [Compound 3622] ({CH2CO}-[Thr(3ξ)]Y(Carboxymethyl)D[Phe(3-Me)]Y[Bip]K(Ac)[Orn][dL][Dab][Cha][Val(3-OH)][Orn]C[Dab]S[12Ado]-OH; thioether N-14)	7.74
CC(=O)NCCCC[C@@H]1NC(=O)[C@H](Cc2ccc(-c3ccccc3)cc2)NC(=O)[C@H](Cc2ccc(O)cc2)NC(=O)[C@H](Cc2cccc(C)c2)NC(=O)[C@H](CC(=O)O)NC(=O)[C@H](Cc2ccc(OCC(=O)O)cc2)NC(=O)[C@H](CCN)NC(=O)CSC[C@@H](C(=O)N[C@@H](CCN)C(=O)N[C@@H](CO)C(=O)NCCCCCCCCCCCC(=O)O)NC(=O)[C@H](CCCN)NC(=O)[C@H](C(C)O)NC(=O)[C@H](CC2CCCCC2)NC(=O)[C@H](CCN)NC(=O)[C@@H](CC(C)C)NC(=O)[C@H](CCCN)NC1=O (stereo partly drawn) [Compound 3623] ({CH2CO}-[Dab]Y(Carboxymethyl)D[Phe(3-Me)]Y[Bip]K(Ac)[Orn][dL][Dab][Cha][Thr(3ξ)][Orn]C[Dab]S[12Ado]-OH; thioether N-14)	7.21
Cc1cccc(C[C@@H]2NC(=O)[C@H](CC(=O)O)NC(=O)[C@H](Cc3ccc(OCC(=O)O)cc3)NC(=O)[C@H](CCN)NC(=O)CSC[C@@H](C(=O)N[C@@H](CCN)C(=O)N[C@@H](CO)C(=O)NCCCCCCCCCCCC(=O)O)NC(=O)[C@H](CCCN)NC(=O)[C@H](C(C)(C)O)NC(=O)[C@H](CC3CCCCC3)NC(=O)[C@H](CCN)NC(=O)[C@@H](CC(C)C)NC(=O)[C@H](CCCN)NC(=O)[C@H](Cc3ccc(OCC(=O)O)cc3)NC(=O)[C@H](Cc3ccc(-c4ccccc4)cc3)NC(=O)[C@H](Cc3ccc(OCC(=O)O)cc3)NC2=O)c1 [Compound 3624] ({CH2CO}-[Dab]Y(Carboxymethyl)D[Phe(3-Me)]Y(Carboxymethyl)[Bip]Y(Carboxymethyl)[Orn][dL][Dab][Cha][Val(3-OH)][Orn]C[Dab]S[12Ado]-OH; thioether N-14)	7.67
Cc1cccc(C[C@@H]2NC(=O)[C@H](CC(=O)O)NC(=O)[C@H](Cc3ccc(OCC(=O)O)cc3)NC(=O)[C@H](CCN)NC(=O)CSC[C@@H](C(=O)N[C@@H](CCN)C(=O)N[C@@H](CO)C(=O)NCCCCCCCCCCCC(=O)O)NC(=O)[C@H](CO)NC(=O)[C@H](C(C)(C)O)NC(=O)[C@H](CC3CCCCC3)NC(=O)[C@H](CCN)NC(=O)[C@@H](CC(C)C)NC(=O)[C@H](CCCN)NC(=O)[C@H](Cc3ccc(OCC(=O)O)cc3)NC(=O)[C@H](Cc3ccc(-c4ccccc4)cc3)NC(=O)[C@H](Cc3ccc(OCC(=O)O)cc3)NC2=O)c1 [Compound 3625] ({CH2CO}-[Dab]Y(Carboxymethyl)D[Phe(3-Me)]Y(Carboxymethyl)[Bip]Y(Carboxymethyl)[Orn][dL][Dab][Cha][Val(3-OH)]SC[Dab]S[12Ado]-OH; thioether N-14)	7.63
Cc1cccc(C[C@@H]2NC(=O)[C@H](CC(=O)O)NC(=O)[C@H](Cc3ccc(OCC(=O)O)cc3)NC(=O)[C@H](CCN)NC(=O)CSC[C@@H](C(=O)N[C@@H](CCN)C(=O)NCCCCCCCCCCCC(=O)O)NC(=O)[C@H](CCCN)NC(=O)[C@H](C(C)(C)O)NC(=O)[C@H](CC3CCCCC3)NC(=O)[C@H](CCN)NC(=O)[C@@H](CC(C)C)NC(=O)[C@H](CCCN)NC(=O)[C@H](Cc3ccc(OCC(=O)O)cc3)NC(=O)[C@H](Cc3ccc(-c4ccccc4)cc3)NC(=O)[C@H](Cc3ccc(OCC(=O)O)cc3)NC2=O)c1 [Compound 3626] ({CH2CO}-[Dab]Y(Carboxymethyl)D[Phe(3-Me)]Y(Carboxymethyl)[Bip]Y(Carboxymethyl)[Orn][dL][Dab][Cha][Val(3-OH)][Orn]C[Dab][12Ado]-OH; thioether N-14)	8.14
CC(=O)NCCCC[C@@H]1NC(=O)[C@H](Cc2ccc(-c3ccccc3)cc2)NC(=O)[C@H](Cc2ccc(O)cc2)NC(=O)[C@H](Cc2cccc(C)c2)NC(=O)[C@H](CC(=O)O)NC(=O)[C@H](Cc2ccc(OCC(=O)O)cc2)NC(=O)[C@H](CCN)NC(=O)CSC[C@@H](C(=O)N[C@@H](CCN)C(=O)N[C@@H](CO)C(=O)NCCCCCCCCCCCC(=O)O)NC(=O)[C@H](CO)NC(=O)[C@H](CCCCN)NC(=O)[C@H](CC2CCCCC2)NC(=O)[C@H](CCN)NC(=O)[C@@H](CC(C)C)NC(=O)[C@H](CCCN)NC1=O [Compound 3627] ({CH2CO}-[Dab]Y(Carboxymethyl)D[Phe(3-Me)]Y[Bip]K(Ac)[Orn][dL][Dab][Cha]KSC[Dab]S[12Ado]-OH; thioether N-14)	7.44
Cc1cccc(C[C@@H]2NC(=O)[C@H](CC(=O)O)NC(=O)[C@H](Cc3ccc(OCC(=O)O)cc3)NC(=O)[C@H](Cc3ccccc3)NC(=O)CSC[C@@H](C(=O)N[C@@H](CCN)C(=O)NCCCCCCCCCCC(=O)O)NC(=O)[C@H](CO)NC(=O)[C@H](C(C)(C)O)NC(=O)[C@H](CC3CCCCC3)NC(=O)[C@H](CCN)NC(=O)[C@@H](CC(C)C)NC(=O)[C@H](CCCN)NC(=O)[C@H](Cc3ccc(OCC(=O)O)cc3)NC(=O)[C@H](Cc3ccc(-c4ccccc4)cc3)NC(=O)[C@H](Cc3ccc(OCC(=O)O)cc3)NC2=O)c1 [Compound 3628] ({CH2CO}-FY(Carboxymethyl)D[Phe(3-Me)]Y(Carboxymethyl)[Bip]Y(Carboxymethyl)[Orn][dL][Dab][Cha][Val(3-OH)]SC[Dab][Aun]-OH; thioether N-14)	7.64
Cc1cccc(C[C@@H]2NC(=O)[C@H](CC(=O)O)NC(=O)[C@H](Cc3ccc(OCC(=O)O)cc3)NC(=O)[C@H](CCN)NC(=O)CSC[C@@H](C(=O)N[C@@H](CCN)C(=O)NCCCCCCCCCCC(=O)O)NC(=O)[C@H](CO)NC(=O)[C@H](C(C)(C)O)NC(=O)[C@H](CC3CCCCC3)NC(=O)[C@H](CCN)NC(=O)[C@@H](CC(C)C)NC(=O)[C@H](CCCN)NC(=O)[C@H](Cc3ccc(OCC(=O)O)cc3)NC(=O)[C@H](Cc3ccc(-c4ccccc4)cc3)NC(=O)[C@H](Cc3ccc(OCC(=O)O)cc3)NC2=O)c1 [Compound 3629] ({CH2CO}-[Dab]Y(Carboxymethyl)D[Phe(3-Me)]Y(Carboxymethyl)[Bip]Y(Carboxymethyl)[Orn][dL][Dab][Cha][Val(3-OH)]SC[Dab][Aun]-OH; thioether N-14)	8.08
Cc1cccc(C[C@@H]2NC(=O)[C@H](CC(=O)O)NC(=O)[C@H](Cc3ccc(OCC(=O)O)cc3)NC(=O)[C@H](CCN)NC(=O)CSC[C@@H](C(=O)N[C@@H](CCN)C(=O)NCCCCCCCCCCC(=O)O)NC(=O)[C@H](CO)NC(=O)[C@H](C(C)O)NC(=O)[C@H](CC3CCCCC3)NC(=O)[C@H](CCN)NC(=O)[C@@H](CC(C)C)NC(=O)[C@H](CCCN)NC(=O)[C@H](Cc3ccc(OCC(=O)O)cc3)NC(=O)[C@H](Cc3ccc(-c4ccccc4)cc3)NC(=O)[C@H](Cc3ccc(OCC(=O)O)cc3)NC2=O)c1 (stereo partly drawn) [Compound 3630] ({CH2CO}-[Dab]Y(Carboxymethyl)D[Phe(3-Me)]Y(Carboxymethyl)[Bip]Y(Carboxymethyl)[Orn][dL][Dab][Cha][Thr(3ξ)]SC[Dab][Aun]-OH; thioether N-14)	8.17
Cc1cccc(C[C@@H]2NC(=O)[C@H](CC(=O)O)NC(=O)[C@H](Cc3ccc(OCC(=O)O)cc3)NC(=O)[C@H](CCN)NC(=O)CSC[C@@H](C(=O)N[C@@H](CCN)C(=O)NCCCCCCCCCCC(=O)O)NC(=O)[C@H](CO)NC(=O)[C@H](CCCCN)NC(=O)[C@H](CC3CCCCC3)NC(=O)[C@H](CCN)NC(=O)[C@@H](CC(C)C)NC(=O)[C@H](CCCN)NC(=O)[C@H](Cc3ccc(OCC(=O)O)cc3)NC(=O)[C@H](Cc3ccc(-c4ccccc4)cc3)NC(=O)[C@H](Cc3ccc(OCC(=O)O)cc3)NC2=O)c1 [Compound 3631] ({CH2CO}-[Dab]Y(Carboxymethyl)D[Phe(3-Me)]Y(Carboxymethyl)[Bip]Y(Carboxymethyl)[Orn][dL][Dab][Cha]KSC[Dab][Aun]-OH; thioether N-14)	7.80
